According to patent publication US20250324971A1, “HERBICIDAL DERIVATIVES” (SYNGENTA CROP PROTECTION AG, priority 2022, published 2025):

Columns and labels:
Assay type in all cases: in vivo
Setaria faberi (SETFA) [1] = test: Pre-Emergence Test (herbicidal, glasshouse pots); settings: evaluated after 13 days, five-point scale
[2] = system: Ipomoea hederacea (IPOHE); test: Pre-Emergence Test (herbicidal, glasshouse pots); settings: evaluated after 13 days, five-point scale
[3] = system: Echinochloa crus-galli (ECHCG); test: Pre-Emergence Test (herbicidal, glasshouse pots); settings: evaluated after 13 days, five-point scale
[4] = system: Amaranthus retoflexus (AMARE); test: Pre-Emergence Test (herbicidal, glasshouse pots); settings: evaluated after 13 days, five-point scale
Zea mays (ZEAMX) [5] = test: Pre-Emergence Test (herbicidal, glasshouse pots); settings: evaluated after 13 days, five-point scale
[6] = system: Amaranthus palmeri (AMAPA); test: Pre-Emergence Test (herbicidal, glasshouse pots); settings: evaluated after 13 days, five-point scale
[7] = system: Amaranthus palmeri (AMAPA); test: Post-Emergence Test (herbicidal, glasshouse pots); settings: evaluated after 13 days
Experimental: (§1) Seeds of a variety of test species are sown in standard soil in pots (Setaria faberi (SETFA), Ipomoea hederacea (IPOHE), Echinochloa crus-galli (ECHCG), (Amaranthus retoflexus (AMARE), Zea mays (ZEAMX), and Amaranthus palmeri (AMAPA)). After 8 days cultivation under controlled conditions in a glasshouse (at 24° C./16° C., day/night; 14 hours light; 65% humidity), the plants arm sprayed with an aqueous spray solution derived from the formulation of the technical active ingredient in acetone/water (50:50) solution containing 0.5% Tween 20 (polyoxyethylene sorbitan monolaurate, CAS RN 9005-84-5). Rate of application is shown in g/ha in the tables below. The test plants are then grown in a glasshouse under controlled conditions in a glasshouse (at 24° C./16° C., day/night; 14 hours light; 65% humidity) and watered twice daily. After 13 days the test is evaluated for the percentage damage caused to the plant. The biological activities are shown in the following table on a five-point scale (5=81-100%; 4=61-80%; 3=41-60%; 2=21-40%; 1=0-20%; -=not tested).

[8] = system: Amaranthus retoflexus (AMARE); test: Post-Emergence Test (herbicidal, glasshouse pots); settings: evaluated after 13 days
Experimental: as §1

[9] = system: Echinochloa crus-galli (ECHCG); test: Post-Emergence Test (herbicidal, glasshouse pots); settings: evaluated after 13 days
Experimental: as §1

[10] = system: Ipomoea hederacea (IPOHE); test: Post-Emergence Test (herbicidal, glasshouse pots); settings: evaluated after 13 days
Experimental: as §1

Setaria faberi (SETFA) [11] = test: Post-Emergence Test (herbicidal, glasshouse pots); settings: rate 1000 g/ha; evaluated after 13 days
Experimental: as §1

Zea mays (ZEAMX) [12] = test: Post-Emergence Test (herbicidal, glasshouse pots); settings: evaluated after 13 days
Experimental: as §1

Compound | percentage damage caused to the plant, SETFA (Setaria faberi (SETFA) [1]; rate 1000 g/ha) | percentage damage caused to the plant, IPHOE ([2]; rate 1000 g/ha) | percentage damage caused to the plant, ECHCG ([3]; rate 1000 g/ha) | percentage damage caused to the plant, AMARE ([4]; rate 1000 g/ha) | percentage damage caused to the plant, ZEAMX (Zea mays (ZEAMX) [5]; rate 1000 g/ha) | percentage damage caused to the plant, AMAPA ([6]; rate 1000 g/ha) | Post-Emergence Test AMAPA percentage damage (five-point scale) ([7]; rate 1000 g/ha) | Post-Emergence Test AMARE percentage damage (five-point scale) ([8]; rate 1000 g/ha) | Post-Emergence Test ECHCG percentage damage (five-point scale) ([9]; rate 1000 g/ha) | Post-Emergence Test IPHOE percentage damage (five-point scale) ([10]; rate 1000 g/ha) | Post-Emergence Test SETFA percentage damage (five-point scale) (Setaria faberi (SETFA) [11]) | Post-Emergence Test ZEAMX percentage damage (five-point scale) (Zea mays (ZEAMX) [12]; rate 1000 g/ha) | also measured
CCn1c(Oc2cccc(Cl)c2)cc(=O)c(C(=O)O)c1-c1ccc(Cl)c(Cl)c1 [Compound 2, 6-(3-chlorophenoxy)-2-(3,4-dichlorophenyl)-1-ethyl-4-oxo-pyridine-3-carboxylic acid] | 5 (5=81-100%) | 4 (4=61-80%) | 4 (4=61-80%) | 2 (2=21-40%) | 2 (2=21-40%) | 1 (1=0-20%) | 4 (4=61-80%) | 4 (4=61-80%) | 4 (4=61-80%) | 3 (3=41-60%) | 4 (4=61-80%) | 3 (3=41-60%) | –
CCn1c(Oc2ccccc2F)cc(=O)c(C(=O)O)c1-c1ccc(Cl)c(Cl)c1 [Compound 3, 2-(3,4-dichlorophenyl)-1-ethyl-6-(2-fluorophenoxy)-4-oxo-pyridine-3-carboxylic acid] | 5 (5=81-100%) | 4 (4=61-80%) | 4 (4=61-80%) | 2 (2=21-40%) | 2 (2=21-40%) | 1 (1=0-20%) | 2 (2=21-40%) | 3 (3=41-60%) | 4 (4=61-80%) | 3 (3=41-60%) | 4 (4=61-80%) | 2 (2=21-40%) | –
CCn1c(Oc2ccc(F)cc2)cc(=O)c(C(=O)O)c1-c1ccc(Cl)c(Cl)c1 [Compound 4, 2-(3,4-dichlorophenyl)-1-ethyl-6-(4-fluorophenoxy)-4-oxo-pyridine-3-carboxylic acid] | 5 (5=81-100%) | 4 (4=61-80%) | 5 (5=81-100%) | 3 (3=41-60%) | 3 (3=41-60%) | 3 (3=41-60%) | 4 (4=61-80%) | 4 (4=61-80%) | 4 (4=61-80%) | 3 (3=41-60%) | 4 (4=61-80%) | 3 (3=41-60%) | –
CCn1c(Nc2ccc(F)cc2)cc(=O)c(C(=O)O)c1-c1ccc(Cl)c(Cl)c1 [Compound 9, 2-(3,4-dichlorophenyl)-1-ethyl-6-(4-fluoroanilino)-4-oxo-pyridine-3-carboxylic acid] | – | – | – | – | – | – | – | – | – | – | – | – | percentage damage caused to the plant, SETFA (Setaria faberi (SETFA) [1]; rate 250 g/ha): 0; percentage damage caused to the plant, IPHOE ([2]; rate 250 g/ha): 0; percentage damage caused to the plant, ECHCG ([3]; rate 250 g/ha): 0; percentage damage caused to the plant, AMARE ([4]; rate 250 g/ha): 0; percentage damage caused to the plant, ZEAMX (Zea mays (ZEAMX) [5]; rate 250 g/ha): 0; percentage damage caused to the plant, AMAPA ([6]; rate 250 g/ha): 1 (1=0-20%); Post-Emergence Test AMAPA percentage damage (five-point scale) ([7]; rate 250 g/ha): 1 (1=0-20%); Post-Emergence Test AMARE percentage damage (five-point scale) ([8]; rate 250 g/ha): 2 (2=21-40%); Post-Emergence Test ECHCG percentage damage (five-point scale) ([9]; rate 250 g/ha): 1 (1=0-20%); Post-Emergence Test IPHOE percentage damage (five-point scale) ([10]; rate 250 g/ha): 4 (4=61-80%); Post-Emergence Test ZEAMX percentage damage (five-point scale) (Zea mays (ZEAMX) [12]; rate 250 g/ha): 0
CCn1c(Oc2ccc(OC(F)(F)F)cc2)cc(=O)c(C(=O)O)c1-c1ccc(Cl)c(Cl)c1 [Compound 20, 2-(3,4-dichlorophenyl)-1-ethyl-4-oxo-6-[4-(trifluoromethoxy)phenoxy]pyridine-3-carboxylic acid] | 5 (5=81-100%) | 2 (2=21-40%) | 5 (5=81-100%) | 4 (4=61-80%) | 3 (3=41-60%) | 4 (4=61-80%) | 3 (3=41-60%) | 4 (4=61-80%) | 4 (4=61-80%) | 3 (3=41-60%) | 5 (5=81-100%) | 3 (3=41-60%) | –
CCn1c(Oc2ccc(OC)c(OC)c2)cc(=O)c(C(=O)O)c1-c1ccc(Cl)c(Cl)c1 [Compound 21, 2-(3,4-dichlorophenyl)-6-(3,4-dimethoxyphenoxy)-1-ethyl-4-oxo-pyridine-3-carboxylic acid] | 4 (4=61-80%) | 3 (3=41-60%) | 2 (2=21-40%) | 1 (1=0-20%) | 1 (1=0-20%) | 1 (1=0-20%) | 3 (3=41-60%) | 4 (4=61-80%) | 1 (1=0-20%) | 3 (3=41-60%) | 5 (5=81-100%) | 1 (1=0-20%) | –
CCn1c(Nc2ccc(C)c(C(F)(F)F)c2)cc(=O)c(C(=O)O)c1-c1ccc(Cl)c(Cl)c1 [Compound 23, 2-(3,4-dichlorophenyl)-1-ethyl-6-[4-methyl-3-(trifluoromethyl)anilino]-4-oxo-pyridine-3-carboxylic acid] | – | 0 | 1 (1=0-20%) | 1 (1=0-20%) | 0 | 0 | 0 | 1 (1=0-20%) | 0 | 0 | – | 0 | –
CCn1c(Oc2ccc(Cl)cc2OC)cc(=O)c(C(=O)O)c1-c1ccc(Cl)c(Cl)c1 [Compound 26, 6-(4-chloro-2-methoxy-phenoxy)-2-(3,4-dichlorophenyl)-1-ethyl-4-oxo-pyridine-3-carboxylic acid] | – | 0 | 0 | 1 (1=0-20%) | 0 | 1 (1=0-20%) | 1 (1=0-20%) | 1 (1=0-20%) | 0 | 1 (1=0-20%) | – | 1 (1=0-20%) | –
CCn1c(Nc2ncc(F)cc2F)cc(=O)c(C(=O)O)c1-c1ccc(Cl)c(Cl)c1 [Compound 31, 2-(3,4-dichlorophenyl)-6-[(3,5-difluoro-2-pyridyl)amino]-1-ethyl-4-oxo-pyridine-3-carboxylic acid] | – | 1 (1=0-20%) | 1 (1=0-20%) | 1 (1=0-20%) | 1 (1=0-20%) | 0 | 2 (2=21-40%) | 2 (2=21-40%) | 1 (1=0-20%) | 2 (2=21-40%) | – | 0 | –
CCn1c(Oc2cccnc2F)cc(=O)c(C(=O)O)c1-c1ccc(Cl)c(Cl)c1 [Compound 34, 2-(3,4-dichlorophenyl)-1-ethyl-6-[(2-fluoro-3-pyridyl)oxy]-4-oxo-pyridine-3-carboxylic acid] | – | 3 (3=41-60%) | 4 (4=61-80%) | 3 (3=41-60%) | 4 (4=61-80%) | 2 (2=21-40%) | 3 (3=41-60%) | 3 (3=41-60%) | 4 (4=61-80%) | 2 (2=21-40%) | – | 3 (3=41-60%) | –
